From publication PMC10892409, “Exploring Ocimum basilicum’s Secondary Metabolites: Inhibition and Molecular Docking against Rhynchophorus ferrugineus for Optimal Action” (Plants, 2024)
In brackets after ≈: the same amount, converted by molar mass. Several values for one entry are separate records, joined by “and”; a condition that tells them apart may be missing. Equal entries are not always repeated.

What was measured:
ALPs [1] = experiment: In vitro ALP inhibition, larval homogenate; format: biochemical, Rhynchophorus ferrugineus; conditions: for IC50 ALPs in vitro: fourth-instar larvae preparation
Description: (§1) The R. ferrugineus were homogenized larvae in a buffer (sodium phosphate, 40 mM, and pH 7.4); then, sodium chloride (10 mM dissolved in 1% (w/v) triton X-100) was added. During centrifugation (Sigma 3–30 KS), the homogenate was chilled to 4 °C and spun at a speed of 5000 rpm (20 min). The supernatant was either immediately put into action for an enzymatic test or frozen and kept at […] for later use. Each test was repeated three times. The protein content was determined using the same protocol employed by Lowry with modification using protein extract (100 µL) combined with an alkaline copper solution and a Folin–Ciocalteu phenol reagent (2 mL and 200 µL, respectively). The intensity of the resulting blue hue was evaluated during 30 min of incubation at 25 °C. Using an ELISA plate reader and a BSA standard curve, we could calculate the protein concentration by analyzing the absorbance at 600 nm (Multiskan SkyHigh Microplate Spectrophotometer, Thermo Fisher Scientific, Waltham, MA, USA).
(§2) Activities of ACPs and ALPs were evaluated using a modified version of the Asakura technique. The ACP test required incubating 100 μL of crude enzyme in a buffer of 650 μL of sodium acetate (pH: 5.0; 50 mM with ACPs) or 250 μL of Tris–HCl (at 50 mM; pH: 8.0 with ALPs) and p-nitrophenyl phosphate (5.5 mM). For 30 min; the various mixes were kept at 37 °C for incubation. Thereafter, 500 μL of NaOH (0.5 N) stopped the reaction. Using an ELISA plate reader, we determined the mixture’s 415 nm absorbance value (Multiskan SkyHigh Microplate Spectrophotometer). The ACP- and ALP-specific activity was estimated as OD 415/mg protein·h.

[2] = test system: fourth-instar larvae of R. ferrugineus; experiment: Topical application (contact) to fourth-instar larvae (probit LD50); format: in vivo, Rhynchophorus ferrugineus; conditions: after 1 day of treatment, 95% confidence limits in brackets
Description: (§3) Over the course of 40 days, an O. basilicum cell suspension was cultivated in this investigation, and then the extract was obtained. […] Long segments of sugarcane stem were employed in the insect breeding lab at King Faisal University’s Research and Training Center to raise adult R. ferrugineus larvae. For this experiment, we used a topical application technique with larvae stored at 4 °C for five minutes to test the extract’s activity. Using a hand-operated micro-applicator (Burkard Manufacturing Co., Ltd., Hertfordshire, UK, collected using a […] micro-syringe), extracts at escalating ratios (10 µL) were injected into the dorsal surface of the larvae (Ito Corp.; MS-N50, Shizuoka, Japan). Five larvae per box in a series of three replicates were fed on sugarcane stem pieces measuring 10 cm in length. The LD50 was calculated by measuring the percentage of dead larvae at 24, 48, 72, and 96 h following a topical application. The antifeedant impact was determined in adults by giving them 10 cm sugarcane stem segments cut in half longitudinally. Long strips of sugarcane stem (32 cm^2) were immersed in the previous serial extract and compound concentration (10 mL) for ten seconds before they were dried in ambient air using a plastic box. Each box included a new pair of larvae (a male and a female). Ten sets of each treatment were performed. Data on how well the subjects ate were evaluated at 24, 48, 72, and 96 h.
(§4) The tissue culture parameters were calculated quantitatively from three independent sets of samples, and the mean SD was used to describe the findings. Toxicity parameters were determined quantitatively using a 10-replicate sample, and means and standard deviations were used to present the data. The median dosage obtained from a dose–response regression was used to calculate the LC50 value. By analyzing the comparative growth rate vs. the crude extract logarithm using least squares regression, the range of LC50 was calculated with 95% confidence. A simple variance study was performed on the increased weight and enzymatic activity data (ANOVA). The distinction between the means was accomplished using the Student–Newman–Keuls (SNK) test. Additionally, SPSS version 25 was used to find p < 0.05 significant deviations from the mean.

R. ferrugineus adults = experiment: Antifeedant/insecticidal test on adults with treated sugarcane stem (probit LC50); format: in vivo, Rhynchophorus ferrugineus; conditions: Rhynchophorus ferrugineus, 24 h, after 1 day of treatment, 95% confidence limits in brackets, read-out: LC50
Description: as §3, §4

AChE [3] = experiment: In vitro AChE inhibition, larval homogenate (Ellman); format: biochemical, Rhynchophorus ferrugineus; conditions: fourth-instar larvae preparation
Description: as §1
(§5) The enzyme AChE was assessed using a substrate of acetylthiocholine iodide and evaluated using 5,5′-dithiobis [2-nitrbenzoic acid] (DTNB), according to [94]. Each well contained a sodium phosphate buffer (140 µL) (pH: 8.0; 100 mM), DTNB (10 µL), extract (20 µL)/components at 1, 10, 50, 100, and 1000 µg/mL in DMSO and underwent 15 min of incubation at 25 °C. Acetylthiocholine (ATCh) was added to start the reaction (10 µL). The ATCh enzymatic hydrolysis produced a 5-thio-2-nitrobenzoate anion as a color (yellow) that was detected by measuring its wavelength, i.e., 412 nm, thereby allowing the researchers to track the rate of ATCh hydrolysis (15 min). Each response was performed three times on a microplate and examined using an ELISA plate reader to determine the 412 nm absorbance of the combination (Multiskan SkyHigh Microplate Spectrophotometer). The AChE-specific activity was measured as OD412/mg protein.h. based on observing the effect of raising the quantities of all of these compounds during the tests on the inhibition results, and the inhibitory concentration (IC50) was calculated. Then, a computer algorithm was used to determine the IC50 values (Version 9.01 of GraphPad Prism by Inc., 2020, San Diego, CA, USA).

AChE [4] = experiment: In vivo AChE inhibition in treated fourth-instar larvae; set-up: species or system Rhynchophorus ferrugineus; conditions: fourth-instar larvae treated 24 h
Description: as §5
(§6) Each enzyme’s in vivo impact was measured after treating larvae with an extract or pure chemicals. An inhibitor-free test combination served as a negative control. We determined the absorbance of the enzymes throughout a spectrum of wavelengths using a rapid reader for ELISA plates (Multiskan SkyHigh Microplate Spectrophotometer). Extracts and pure chemicals were used to treat R. ferrugineus larvae at previous serial concentrations, and their AChE, ACP, ALP, and GABA-T activity was tested in vivo using the methods outlined above. Larvae spent a day on leaf disks treated with chemicals or extract.

ACPs [5] = experiment: In vitro ACP inhibition, larval homogenate; format: biochemical, Rhynchophorus ferrugineus; conditions: fourth-instar larvae preparation
Description: as §1, §2

ACPs [6] = experiment: In vivo ACP inhibition in treated fourth-instar larvae; set-up: species or system Rhynchophorus ferrugineus; conditions: fourth-instar larvae treated 24 h
Description: as §2, §6

ALPs [7] = experiment: In vivo ALP inhibition in treated fourth-instar larvae; set-up: species or system Rhynchophorus ferrugineus; conditions: fourth-instar larvae treated 24 h
Description: as §2, §6

[8] = listed as quercetin-3-O-rutinoside

## O=C(/C=C/c1ccc(O)c(O)c1)O[C@@H](C(=O)O)[C@@H](O)C(=O)O [Caftaric acid]
ALPs [1]
  IC50 ALP in vitro: 158 µg/mL (≈ 505 µM)
ALPs [1]; listed as caftaric acid
  IC50 ALPs in vitro: < 200 µg/mL
[2]
  LD50: 18.79 (17.82–19.93) µg/Larvae
[2]; listed as caftaric acid
  LD50: 18.79 µg/Larvae
R. ferrugineus adults
  LC50: 1490 µg/mL (≈ 4780 µM)
AChE [3]
  IC50 AChE in vitro: 156 ± 1.49 µg/mL
AChE [3]; listed as caftaric acid
  IC50 AChE in vitro: 156.4 µg/mL
AChE [4]
  IC50 AChE in vivo: 429 ± 1.49 µg/mL
AChE [4]; listed as caftaric acid
  IC50 AChE in vivo: 429.2 µg/mL

## COc1cc(/C=C/C(=O)O[C@@H](C(=O)O)[C@@H](O)C(=O)O)ccc1O [Fertaric acid]
ALPs [1]
  IC50 ALP in vitro: 137 µg/mL (≈ 421 µM)
ALPs [1]; listed as fertaric acid
  IC50 ALPs in vitro: < 200 µg/mL
ACPs [5]; listed as fertaric acid
  IC50 ACPs in vitro: 133.5 µg/mL (≈ 409 µM)
ACPs [6]; listed as fertaric acid
  IC50 ACPs in vivo: 349.4 µg/mL
[2]
  LD50: 19.46 (18.23–20.76) µg/Larvae
[2]; listed as fertaric acid
  LD50: 19.46 µg/Larvae
R. ferrugineus adults
  LC50: 1530 µg/mL (≈ 4680 µM)
AChE [3]
  IC50 AChE in vitro: 124 ± 1.18 µg/mL
AChE [3]; listed as fertaric acid
  IC50 AChE in vitro: 123.6 µg/mL
AChE [4]
  IC50 AChE in vivo: 385 ± 1.18 µg/mL
AChE [4]; listed as fertaric acid
  IC50 AChE in vivo: 384.7 µg/mL
ALPs [7]; listed as fertaric acid
  IC50 ALPs in vivo: 436.8 µg/mL

## O=C(O)C[C@H](C(=O)O)[C@@H](O)C(=O)O [Isocitric acid]
ALPs [1]
  IC50 ALP in vitro: 195 µg/mL (≈ 1010 µM)
  IC50 ALPs in vitro: < 200 µg/mL
ACPs [5]
  IC50 ACPs in vitro: 192.4 µg/mL (≈ 1000 µM)
ACPs [6]; listed as isocitric acid
  IC50 ACPs in vivo: 415.6 µg/mL
[2]
  LD50: 22.7 (21.4–23.8) µg/Larvae
[2]; listed as isocitric acid
  LD50: 22.7 µg/Larvae
R. ferrugineus adults
  LC50: 1800 µg/mL (≈ 9340 µM)
AChE [3]
  IC50 AChE in vitro: 197.3 µg/mL and 197 ± 1.76 µg/mL
AChE [4]
  IC50 AChE in vivo: 494 ± 1.76 µg/mL
AChE [4]; listed as isocitric acid
  IC50 AChE in vivo: 494.2 µg/mL
ALPs [7]; listed as isocitric acid
  IC50 ALPs in vivo: 448.3 µg/mL

## O=C(/C=C/c1ccc(O)c(O)c1)O/C=C\c1ccc(O)c(O)c1 [Nepetoidin B]
ALPs [1]
  IC50 ALP in vitro: 166 µg/mL (≈ 529 µM)
ALPs [1]; listed as nepetoidin B
  IC50 ALPs in vitro: < 200 µg/mL
ACPs [5]; listed as nepetoidin B
  IC50 ACPs in vitro: 154.2 µg/mL (≈ 491 µM)
ACPs [6]; listed as nepetoidin B
  IC50 ACPs in vivo: < 330 µg/mL and 294.3 µg/mL
[2]
  LD50: 11.5 (10.9–12.1) µg/Larvae
[2]; listed as nepetoidin B
  LD50: 11.5 µg/Larvae
R. ferrugineus adults
  LC50: 1270 µg/mL (≈ 4050 µM)
AChE [3]
  IC50 AChE in vitro: 147 ± 1.38 µg/mL
AChE [3]; listed as nepetoidin B
  IC50 AChE in vitro: 147.2 µg/mL
AChE [4]
  IC50 AChE in vivo: 282 ± 1.38 µg/mL
AChE [4]; listed as nepetoidin B
  IC50 AChE in vivo: 281.7 µg/mL
ALPs [7]; listed as nepetoidin B
  IC50 ALPs in vivo: 307.9 µg/mL

## C[C@@H]1O[C@@H](OC[C@H]2O[C@@H](Oc3c(-c4ccc(O)c(O)c4)oc4cc(O)cc(O)c4c3=O)[C@H](O)[C@@H](O)[C@@H]2O)[C@H](O)[C@H](O)[C@H]1O [Quercetin-3-O-rutinoside]
ALPs [1]
  IC50 ALP in vitro: 102 µg/mL (≈ 168 µM)
ALPs [1]; [8]
  IC50 ALPs in vitro: < 200 µg/mL
ACPs [5]; [8]
  IC50 ACPs in vitro: 104.8 µg/mL (≈ 172 µM)
ACPs [6]; [8]
  IC50 ACPs in vivo: 298.4 µg/mL
[2]
  LD50: 16.2 (15.3–17.2) µg/Larvae
[2]; [8]
  LD50: 16.2 µg/Larvae
R. ferrugineus adults
  LC50: 1170 µg/mL (≈ 1910 µM)
AChE [3]
  IC50 AChE in vitro: 98 ± 0.87 µg/mL
AChE [3]; [8]
  IC50 AChE in vitro: 98.4 µg/mL
AChE [4]
  IC50 AChE in vivo: 348 ± 0.87 µg/mL
AChE [4]; [8]
  IC50 AChE in vivo: 347.6 µg/mL

## O=C(C=Cc1ccc(O)c(O)c1)OC(Cc1ccc(O)c(O)c1)C(=O)OC1OC(CO)C(O)C(O)C1O (centres unmarked) [Rosmarinic acid glucoside]
ALPs [1]
  IC50 ALP in vitro: 120 µg/mL (≈ 229 µM)
ALPs [1]; listed as rosmarinyl glucoside
  IC50 ALPs in vitro: < 200 µg/mL
ACPs [5]; listed as rosmarinyl glucoside
  IC50 ACPs in vitro: 123.6 µg/mL (≈ 237 µM)
ACPs [6]; listed as rosmarinyl glucoside
  IC50 ACPs in vivo: 318.8 µg/mL
[2]; listed as Rosmarinyl glucoside
  LD50: 17.2 (15.7–18.1) µg/Larvae
[2]; listed as rosmarinyl glucoside
  LD50: 17.2 µg/Larvae
R. ferrugineus adults
  LC50: 1230 µg/mL (≈ 2350 µM)
AChE [3]
  IC50 AChE in vitro: 89 ± 0.85 µg/mL
AChE [3]; listed as rosmarinyl glucoside
  IC50 AChE in vitro: 89.4 µg/mL
AChE [4]
  IC50 AChE in vivo: 313 ± 0.85 µg/mL
AChE [4]; listed as rosmarinyl glucoside
  IC50 AChE in vivo: 312.7 µg/mL
ALPs [7]; listed as rosmarinyl glucoside
  IC50 ALPs in vivo: 387.4 µg/mL

## Chicoric acid
ALPs [1]; listed as chicoric acid
  IC50 ALPs in vitro: < 200 µg/mL
ACPs [5]; listed as chicoric acid
  IC50 ACPs in vitro: 101.7 µg/mL
ACPs [6]; listed as chicoric acid
  IC50 ACPs in vivo: < 330 µg/mL and 204.8 µg/mL
[2]
  LD50: 9.45 (9.07–10.45) µg/Larvae
[2]; listed as chicoric acid
  LD50: 9.45 µg/Larvae
AChE [3]
  IC50 AChE in vitro: 108 ± 1.07 µg/mL
AChE [3]; listed as chicoric acid
  IC50 AChE in vitro: 107.5 µg/mL
AChE [4]
  IC50 AChE in vivo: 213 ± 1.07 µg/mL
AChE [4]; listed as chicoric acid
  IC50 AChE in vivo: 211.6 µg/mL
ALPs [7]; listed as chicoric acid
  IC50 ALPs in vivo: 237.2 µg/mL
